system: PD-1/PD-L1 interaction; assay: Cell based PD-1/PD-L1 NFAT reporter assay; set-up: species or system human; settings: Homo sapiens, 6 h, PD-1/NFAT-Reporter-Jurkat cells co-cultured with TCR activator/PD-L1-CHO cells; 6 hour incubation; luciferase; calibrated to Atezolizumab 10 nM; read-out: Absolute EC50
Experimental: Cell Based PD-1/PD-L1 NFAT Reporter Assay
Compounds of the present patent were tested in a cell based PD-1/PD-L1 NFAT reporter assay.
The cell-based luciferase reporter assay is used for monitoring the PD-1/PD-L1 inhibitor by characterizing the biological activity of PD-1: PD-L1 interactions in cellular context. PD-1/NFAT-Reporter-Jurkat cells stably over-expressing human PD-1 with NFAT reporter are used as effector cells. TCR activator/PD-L1—CHO cells over-expressing PD-L1 and an engineered T cell receptor (TCR) activator are used as target cells. When these two cells are co-cultivated, TCR complexes on effector cells are activated by TCR activator on target cells, resulting in expression of the NFAT luciferase reporter. However, PD1 and PD-L1 (or PD-L2) ligation prevents TCR activation and suppresses the NFAT-responsive luciferase activity. This inhibition can be specifically reversed by anti-PD1 or anti-PD-L1 inhibitors. PD1/PD-L1 inhibitors block PD1:PD-L1 interaction and promote TCR activation, resulting in reactivation of the NFAT responsive luciferase reporter.
PD-1/NFAT—Reporter—Jurkat cell (Cat: 60535) and TCR activator/PD-L1—CHO cell (Cat: 60536) were purchased from BPS Bioscience. Anti-human PD-L1 antibody (Atezolizumab, Cat: A2004) was purchased from Selleck; luciferase reporter gene expression detection kit (ONE-Glo™ Luciferase Assay System, Cat: E6120) was purchased from Promega; multifunction plate reader (SpectraMax i3x) was purchased from Molecular Devices.
PD-1/NFAT—Reporter—Jurkat cells and TCR activator/PD-L1—CHO cells were cultured in recommended media respectively.
Harvest TCR activator/PD-L1-CHO cells from culture and seed cells at a density of 35,000 cells per well into 96-well microplate in 100 µl of growth medium. Incubate cells at 37° C. in a CO2 incubator overnight. Next day, discard the culture media, add diluted compound in assay medium for 30 min. Anti-PD-L1 antibody (Atezolizumab, final concentration 10 nM) and 0.1% DMSO were the positive and negative control, respectively. Harvest the PD-1/NFAT-reporter-Jurkat cells by centrifugation and add to the wells. After 6 hour incubation, perform luciferase assay using the ONE-Glo™ Luciferase Assay System, following the manufacturer's assay protocol.
Anti-PD-L1 antibody (Atezolizumnab, 10 nM) was used as positive control to calibrate the inhibition rate using the following equation: % inhibition=(Sample luminescence/Average vehicle group luminescence−1)/(Average PD-L1 group luminescence/Average vehicle group luminescence−1)×100%.

EC50 [nM] | Compound
> 10000 | Cn1cc(COc2cc(OCc3cccc(-c4cccc5c4cnn5CCCCN4CC[C@@H](O)C4)c3Br)c(Cl)cc2CN[C@@H](CO)C(=O)O)cn1 [Compound 42]
153 | N#Cc1cc(C#N)cc(COc2cc(OCc3cccc(-c4cccc5c4cnn5CCCCN4CC[C@@H](O)C4)c3Br)c(Cl)cc2CN[C@@H](CO)C(=O)O)c1 [Compound 44]
2720 | O=C(O)[C@H](CO)NCc1cc(Cl)c(OCc2cccc(-c3cccc4c3cnn4CCCCN3CC[C@@H](O)C3)c2Br)cc1OCC1CCOCC1 [Compound 45]
846 | CN1CCC(COc2cc(OCc3cccc(-c4cccc5c4cnn5CCCCN4CC[C@@H](O)C4)c3Br)c(Cl)cc2CN[C@@H](CO)C(=O)O)CC1 [Compound 46]
261 | O=C1CC[C@@H](COc2cc(OCc3cccc(-c4cccc5c4cnn5CCCCN4CC[C@@H](O)C4)c3Br)c(Cl)cc2CN[C@@H](CO)C(=O)O)N1 [Compound 47]
997 | O=C1CC(COc2cc(OCc3cccc(-c4cccc5c4cnn5CCCCN4CC[C@@H](O)C4)c3Br)c(Cl)cc2CN[C@@H](CO)C(=O)O)CN1 (some centres unmarked) [Compound 48]
> 10000 | O=C(O)[C@H](CO)NCc1cc(Cl)c(OCc2cccc(-c3cccc4c3cnn4CCCCN3CC[C@@H](O)C3)c2Br)cc1OCC(=O)N1CC[C@@H](O)C1 [Compound 49, (4-((2-bromo-3-(1-(4-((R)-3-hydroxypyrrolidin-1-yl)butyl)-1H-indazol-4-yl)benzyl)oxy)-5-chloro-2-(2-((R)-3-hydroxypyrrolidin-1-yl)-2-oxoethoxy)benzyl)-L-serine]
2820 | CCNC(=O)COc1cc(OCc2cccc(-c3cccc4c3cnn4CCCCN3CC[C@@H](O)C3)c2Br)c(Cl)cc1CN[C@@H](CO)C(=O)O [Compound 50]
3080 | NC(=O)CNC(=O)COc1cc(OCc2cccc(-c3cccc4c3cnn4CCCCN3CC[C@@H](O)C3)c2Br)c(Cl)cc1CN[C@@H](CO)C(=O)O [Compound 51]
> 10000 | CN(C)CCNC(=O)COc1cc(OCc2cccc(-c3cccc4c3cnn4CCCCN3CC[C@@H](O)C3)c2Br)c(Cl)cc1CN[C@@H](CO)C(=O)O [Compound 52]
> 10000 | COCCNC(=O)COc1cc(OCc2cccc(-c3cccc4c3cnn4CCCCN3CC[C@@H](O)C3)c2Br)c(Cl)cc1CN[C@@H](CO)C(=O)O [Compound 53]
339 | Cc1c(OCCCN2CC[C@@H](O)C2)cccc1-c1cccc2c1cnn2Cc1cc(OCc2cncc(C#N)c2)c(CN[C@@H](CO)C(=O)O)cc1Cl [Compound 54, (5-chloro-2-((5-cyanopyridin-3-yl)methoxy)-4-((4-(3-(3-((R)-3-hydroxypyrrolidin-1-yl)propoxy)-2-methylphenyl)-1H-indazol-1-yl)methyl)benzyl)-L-serine]
1150 | N#Cc1cncc(COc2cc(Cn3ncc4c(-c5cccc(OCCCN6CC[C@@H](O)C6)c5Br)cccc43)c(Cl)cc2CN[C@@H](CO)C(=O)O)c1 [Compound 55, (4-((4-(2-bromo-3-(3-((R)-3-hydroxypyrrolidin-1-yl)propoxy)phenyl)-1H-indazol-1-yl)methyl)-5-chloro-2-((5-cyanopyridin-3-yl)methoxy)benzyl)-L-serine]
163 | COc1cc(OCc2cccc(-c3cccc4c3cnn4Cc3cc(OCc4cncc(C#N)c4)c(CN[C@@H](CO)C(=O)O)cc3Cl)c2C)c(Cl)cc1CN[C@@H](CO)C(=O)O [Compound 56, (4-((3-(1-(4-((((S)-1-carboxy-2-hydroxyethyl)amino)methyl)-2-chloro-5-((5-cyanopyridin-3-yl)methoxy)benzyl)-1H-indazol-4-yl)-2-methylbenzyl)oxy)-5-chloro-2-methoxybenzyl)-L-serine]
53 | Cc1c(COc2cc(OCc3cncc(C#N)c3)c(CN[C@@H](CO)C(=O)O)cc2Cl)cccc1-c1cccc2c1cnn2Cc1cc(OCc2cncc(C#N)c2)c(CN[C@@H](CO)C(=O)O)cc1Cl [Compound 57, (4-((3-(1-(4-((((S)-1-carboxy-2-hydroxyethyl)amino)methyl)-2-chloro-5-((5-cyanopyridin-3-yl)methoxy)benzyl)-1H-indazol-4-yl)-2-methylbenzyl)oxy)-5-chloro-2-((5-cyanopyridin-3-yl)methoxy)benzyl)-L-serine]
1710 | N#Cc1cncc(COc2cc(OCc3cccc(-c4cccc5c4cnn5Cc4ccc(CN[C@@H](CO)C(=O)O)cc4)c3Br)c(Cl)cc2CN[C@@H](CO)C(=O)O)c1 [Compound 58, (4-((4-(2-bromo-3-((4-((((S)-1-carboxy-2-hydroxyethyl)amino)methyl)-2-chloro-5-((5-cyanopyridin-3-yl)methoxy)phenoxy)methyl)phenyl)-1H-indazol-1-yl)methyl)benzyl)-L-serine]
220 | N#Cc1cncc(COc2cc(OCc3cccc(-c4cccc5c4cnn5Cc4ccc(CN[C@@H](CO)C(=O)O)cc4Cl)c3Br)c(Cl)cc2CN[C@@H](CO)C(=O)O)c1 [Compound 59, (4-((4-(2-bromo-3-((4-((((S)-1-carboxy-2-hydroxyethyl)amino)methyl)-2-chloro-5-((5-cyanopyridin-3-yl)methoxy)phenoxy)methyl)phenyl)-1H-indazol-1-yl)methyl)-3-chlorobenzyl)-L-serine]
1850 | CC(CO)(CO)NCc1cc(Cl)c(Cn2ncc3c(-c4cccc5c4cnn5CCCN4CC[C@@H](O)C4)cccc32)cc1OCc1cncc(C#N)c1 [Compound 60, (R)-5-((4-chloro-2-(((1,3-dihydroxy-2-methylpropan-2-yl)amino)methyl)-5-((1′-(3-(3-hydroxypyrrolidin-1-yl)propyl)-1H,1′H-[4,4′-biindazol]-1-yl)methyl)phenoxy)methyl)nicotinonitrile]
124 | N#Cc1cncc(COc2cc(Cn3ncc4c(-c5cccc6c5cnn6Cc5cc(OCc6cncc(C#N)c6)c(CN[C@@H](CO)C(=O)O)cc5Cl)cccc43)c(Cl)cc2CN[C@@H](CO)C(=O)O)c1 [Compound 61, (2S,2'S)-2,2′-((((1H,1′H-[4,4′-biindazole]-1,1′-diylbis(methylene))bis(5-chloro-2-((5-cyanopyridin-3-yl)methoxy)-4,1-phenylene))bis(methylene))bis(azanediyl))bis(3-hydroxypropanoic acid)]
550 | Cc1c(COc2cc(OCc3cncc(C#N)c3)c(CN[C@@H](CO)C(=O)OC(C)C)cc2Cl)cccc1-c1cccc2c1cnn2Cc1cc(OCc2cncc(C#N)c2)c(CN[C@@H](CO)C(=O)O)cc1Cl [Compound 64, (5-chloro-4-((4-(3-((2-chloro-5-((5-cyanopyridin-3-yl)methoxy)-4-((((S)-3-hydroxy-1-isopropoxy-1-oxopropan-2-yl)amino)methyl)phenoxy)methyl)-2-methylphenyl)-1H-indazol-1-yl)methyl)-2-((5-cyanopyridin-3-yl)methoxy)benzyl)-L-serine]
418 | Cc1c(COc2cc(OCc3cncc(C#N)c3)c(CN[C@@H](CO)C(=O)O)cc2Cl)cccc1-c1cccc2c1cnn2Cc1cc(OCc2cncc(C#N)c2)c(CN[C@@H](CO)C(=O)OC(C)C)cc1Cl [Compound 65, (5-chloro-4-((3-(1-(2-chloro-5-((5-cyanopyridin-3-yl)methoxy)-4-((((S)-3-hydroxy-1-isopropoxy-1-oxopropan-2-yl)amino)methyl)benzyl)-1H-indazol-4-yl)-2-methylbenzyl)oxy)-2-((5-cyanopyridin-3-yl)methoxy)benzyl)-L-serine]
307 | COc1cc(Cn2ncc3c(-c4cccc(COc5cc(OC)c(CN[C@@H](CO)C(=O)O)cc5Cl)c4C)cccc32)c(Cl)cc1CN[C@@H](CO)C(=O)O [Compound 66, (4-((3-(1-(4-((((S)-1-carboxy-2-hydroxyethyl)amino)methyl)-2-chloro-5-methoxybenzyl)-1H-indazol-4-yl)-2-methylbenzyl)oxy)-5-chloro-2-methoxybenzyl)-L-serine]
89 | COc1cc(Cn2ncc3c(-c4cccc(COc5cc(OCc6cncc(C#N)c6)c(CN[C@@H](CO)C(=O)O)cc5Cl)c4C)cccc32)c(Cl)cc1CN[C@@H](CO)C(=O)O [Compound 67, (4-((4-(3-((4-((((S)-1-carboxy-2-hydroxyethyl)amino)methyl)-2-chloro-5-((5-cyanopyridin-3-yl)methoxy)phenoxy)methyl)-2-methylphenyl)-1H-indazol-1-yl)methyl)-5-chloro-2-methoxybenzyl)-L-serine]
